Results: the OPERA property sets (Mansouri et al. 2018)

| Structure (SMILES) | logP |
| --- | --- |
| CC(=O)C=Cc1ccc(C)cc1 | 2.65 |
| CC(=O)C=Cc1ccc(Cl)cc1 | 2.8 |
| COc1ccccc1C=CC(C)=O | 2.42 |
| COc1ccccc1C=CC(=O)C(F)(F)F | 3.39 |
| COc1ccc(C=CC(C)=O)cc1 | 2.25 |
| COc1cccc(C=CC(=O)C(F)(F)F)c1 | 3.05 |
| CC(=O)C=Cc1cccc(C#N)c1 | 1.59 |
| CC(=O)C=Cc1cccc(F)c1 | 2.25 |
| N#Cc1ccc(C=CC(=O)C(F)(F)F)cc1 | 2.42 |
| CC(=O)C=Cc1ccccc1F | 2.34 |
| O=C(C=Cc1ccccc1)C(F)(F)F | 3.01 |
| CC(=O)C=Cc1cccc(C(F)(F)F)c1 | 3.03 |
| CC(=O)C=Cc1ccc(O)cc1 | 1.86 |
| CC(=O)C=Cc1ccc(C(F)(F)F)cc1 | 3.13 |
| COc1ccc(C=CC(=O)C(F)(F)F)cc1 | 3.33 |
| O=C(C=Cc1ccc(Cl)cc1)C(F)(F)F | 3.63 |
| CC(=O)C=Cc1cccc(C)c1 | 2.68 |
| O=C(C=Cc1cccc([N+](=O)[O-])c1)C(F)(F)F | 2.66 |
| CC(=O)C=Cc1ccc(F)cc1 | 2.22 |
| O=C(C=Cc1ccccc1Cl)C(F)(F)F | 3.5 |

Further lines, results first:

| logP | Structure (SMILES) |
| --- | --- |
| 3.58 | O=C(C=Cc1cccc(Cl)c1)C(F)(F)F |
| 2.6 | CC(=O)C=Cc1ccccc1C |
| 2.81 | CC(=O)C=Cc1cccc(Cl)c1 |
| 2.45 | N#Cc1cccc(C=CC(=O)C(F)(F)F)c1 |
| 2.73 | CCOc1ccc(C=CC(C)=O)cc1 |
| 1.64 | CC(=O)C=Cc1ccc(C#N)cc1 |
| 1.88 | CC(=O)C=Cc1cccc([N+](=O)[O-])c1 |
| 3.02 | CC(=O)C=Cc1cccc(Br)c1 |
| 3.14 | CC(=O)C=Cc1ccccc1C(F)(F)F |
| 2.85 | CC(=O)C=Cc1ccccc1Cl |
| 1.63 | CC(=O)C=Cc1ccc(OC(C)=O)cc1 |
| 2.27 | COc1cccc(C=CC(C)=O)c1 |
| 2.19 | CC(=O)C=Cc1ccccc1O |
| 3.03 | CC(=O)C=Cc1ccc(Br)cc1 |
| 3.26 | CCc1ccc(C=CC(C)=O)cc1 |
| 1.9 | CC(=O)C=Cc1ccc([N+](=O)[O-])cc1 |
| 2.66 | CC(=O)C=Cc1ccc(N(C)C)cc1 |
